Reference: PubChem BioAssay (NCI)
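Dose response: 5 concentrations. Exposure: 48 h. Format: 96-well plates. Endpoint: linear interpolation; highest concentration if not reached. TGI is the concentration that stops growth completely.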

How the values were obtained:
Assay in all cases: NCI tumour cell line growth inhibition, 48 h
SNB-19 CNS = tested on: SNB-19 CNS
HOP-92 NSCLC = tested on: HOP-92 NSCLC
CCRF-CEM leukemia = tested on: CCRF-CEM leukemia
SK-OV-3 ovarian = tested on: SK-OV-3 ovarian
MDA-MB-435 = tested on: MDA-MB-435
TK-10 renal = tested on: TK-10 renal
SR leukemia = tested on: SR leukemia
HT29 colon = tested on: HT29 colon
OVCAR-4 ovarian = tested on: OVCAR-4 ovarian
SF-295 CNS = tested on: SF-295 CNS
HCT-116 colon = tested on: HCT-116 colon
A549 NSCLC = tested on: A549 NSCLC
MDA-MB-231 breast = tested on: MDA-MB-231 breast
UO-31 renal = tested on: UO-31 renal
HOP-62 NSCLC = tested on: HOP-62 NSCLC
MDA-N = tested on: MDA-N
U251 CNS = tested on: U251 CNS
UACC-62 melanoma = tested on: UACC-62 melanoma
MOLT-4 leukemia = tested on: MOLT-4 leukemia
BT-549 breast = tested on: BT-549 breast
SF-539 CNS = tested on: SF-539 CNS
OVCAR-5 ovarian = tested on: OVCAR-5 ovarian
ACHN renal = tested on: ACHN renal
LOX IMVI melanoma = tested on: LOX IMVI melanoma
K-562 leukemia = tested on: K-562 leukemia
SK-MEL-2 melanoma = tested on: SK-MEL-2 melanoma
T-47D breast = tested on: T-47D breast
NCI-H23 lung = tested on: NCI-H23 lung
PC-3 prostate = tested on: PC-3 prostate
OVCAR-3 ovarian = tested on: OVCAR-3 ovarian
SW-620 colon = tested on: SW-620 colon
IGROV1 ovarian = tested on: IGROV1 ovarian
SN12C renal = tested on: SN12C renal
UACC-257 melanoma = tested on: UACC-257 melanoma
CAKI-1 renal = tested on: CAKI-1 renal
M14 melanoma = tested on: M14 melanoma
NCI-H460 lung = tested on: NCI-H460 lung
HCC-2998 colon = tested on: HCC-2998 colon
RXF 393 renal = tested on: RXF 393 renal
SNB-75 CNS = tested on: SNB-75 CNS
SK-MEL-28 melanoma = tested on: SK-MEL-28 melanoma
MCF7 breast = tested on: MCF7 breast
DU-145 prostate = tested on: DU-145 prostate
COLO 205 colon = tested on: COLO 205 colon
RPMI-8226 leukemia = tested on: RPMI-8226 leukemia
SK-MEL-5 melanoma = tested on: SK-MEL-5 melanoma
EKVX NSCLC = tested on: EKVX NSCLC
KM12 colon = tested on: KM12 colon
HCT-15 colon = tested on: HCT-15 colon
NCI/ADR-RES ovarian = tested on: NCI/ADR-RES ovarian
A498 renal = tested on: A498 renal
SF-268 CNS = tested on: SF-268 CNS
NCI-H226 lung = tested on: NCI-H226 lung
786-0 renal = tested on: 786-0 renal
NCI-H522 lung = tested on: NCI-H522 lung
MALME-3M melanoma = tested on: MALME-3M melanoma
OVCAR-8 ovarian = tested on: OVCAR-8 ovarian

For Cc1cc(C)c(/C=C(\C(=C/c2c(C)cc(C)cc2C)[N+](=O)[O-])[N+](=O)[O-])c(C)c1, the TGI (SNB-19 CNS) was over 100 µM, the TGI (HOP-92 NSCLC) was over 100 µM and the TGI (CCRF-CEM leukemia) was over 100 µM. The TGI (SK-OV-3 ovarian) was over 100 µM, the TGI (MDA-MB-435) was over 100 µM and the TGI (TK-10 renal) was over 100 µM. For the same compound, the TGI (SR leukemia) was over 100 µM, the TGI (HT29 colon) was over 100 µM and the TGI (OVCAR-4 ovarian) was over 100 µM. It also gave a TGI (SF-295 CNS) of over 100 µM, a TGI (HCT-116 colon) of over 100 µM and a TGI (A549 NSCLC) of over 100 µM. The TGI (MDA-MB-231 breast) was over 100 µM, the TGI (UO-31 renal) was over 100 µM and the TGI (HOP-62 NSCLC) was over 100 µM. It also gave a TGI (MDA-N) of over 100 µM, a TGI (U251 CNS) of over 100 µM and a TGI (UACC-62 melanoma) of over 100 µM. For the same compound, the TGI (MOLT-4 leukemia) was over 100 µM, the TGI (BT-549 breast) was over 100 µM and the TGI (SF-539 CNS) was over 100 µM. The TGI (OVCAR-5 ovarian) was over 100 µM, the TGI (ACHN renal) was over 100 µM and the TGI (LOX IMVI melanoma) was over 100 µM. For the same compound, the TGI (K-562 leukemia) was over 100 µM, the TGI (SK-MEL-2 melanoma) was over 100 µM and the TGI (T-47D breast) was over 100 µM. The TGI (NCI-H23 lung) was over 100 µM, the TGI (PC-3 prostate) was over 100 µM and the TGI (OVCAR-3 ovarian) was over 100 µM. For the same compound, the TGI (SW-620 colon) was over 100 µM, the TGI (IGROV1 ovarian) was over 100 µM and the TGI (SN12C renal) was over 100 µM. For the same compound, the TGI (UACC-257 melanoma) was over 100 µM, the TGI (CAKI-1 renal) was over 100 µM and the TGI (M14 melanoma) was over 100 µM. For the same compound, the TGI (NCI-H460 lung) was over 100 µM, the TGI (HCC-2998 colon) was over 100 µM and the TGI (RXF 393 renal) was 90.4 µM. For the same compound, the TGI (SNB-75 CNS) was over 100 µM, the TGI (SK-MEL-28 melanoma) was over 100 µM and the TGI (MCF7 breast) was over 100 µM. It also gave a TGI (DU-145 prostate) of over 100 µM, a TGI (COLO 205 colon) of over 100 µM and a TGI (RPMI-8226 leukemia) of 70.9 µM. For the same compound, the TGI (SK-MEL-5 melanoma) was over 100 µM, the TGI (EKVX NSCLC) was over 100 µM and the TGI (KM12 colon) was over 100 µM.

C[C@]12CC[C@@H]3c4ccc(O)cc4CC[C@H]3[C@@H]1C/C(=C\c1ccc(C#N)cc1)C2=O showed a TGI (SNB-19 CNS) of over 100 µM, a TGI (HOP-92 NSCLC) of 89.1 µM and a TGI (CCRF-CEM leukemia) of over 100 µM. The TGI (SK-OV-3 ovarian) was over 100 µM, the TGI (MDA-MB-435) was 76.8 µM and the TGI (HCT-15 colon) was over 100 µM. The TGI (TK-10 renal) was over 100 µM, the TGI (SR leukemia) was over 100 µM and the TGI (NCI/ADR-RES ovarian) was over 100 µM. It also gave a TGI (HT29 colon) of 75.2 µM, a TGI (OVCAR-4 ovarian) of over 100 µM and a TGI (SF-295 CNS) of over 100 µM. For the same compound, the TGI (HCT-116 colon) was over 100 µM, the TGI (A549 NSCLC) was over 100 µM and the TGI (MDA-MB-231 breast) was over 100 µM. It also gave a TGI (A498 renal) of over 100 µM, a TGI (UO-31 renal) of over 100 µM and a TGI (SF-268 CNS) of over 100 µM. The TGI (HOP-62 NSCLC) was over 100 µM, the TGI (MDA-N) was over 100 µM and the TGI (U251 CNS) was over 100 µM. For the same compound, the TGI (NCI-H226 lung) was over 100 µM, the TGI (UACC-62 melanoma) was over 100 µM and the TGI (MOLT-4 leukemia) was over 100 µM. For the same compound, the TGI (BT-549 breast) was over 100 µM, the TGI (SF-539 CNS) was over 100 µM and the TGI (OVCAR-5 ovarian) was over 100 µM. For the same compound, the TGI (786-0 renal) was over 100 µM, the TGI (ACHN renal) was over 100 µM and the TGI (NCI-H522 lung) was 41.6 µM. It also gave a TGI (LOX IMVI melanoma) of over 100 µM, a TGI (K-562 leukemia) of over 100 µM and a TGI (SK-MEL-2 melanoma) of over 100 µM. For the same compound, the TGI (T-47D breast) was over 100 µM, the TGI (NCI-H23 lung) was over 100 µM and the TGI (PC-3 prostate) was over 100 µM. The TGI (MALME-3M melanoma) was over 100 µM, the TGI (OVCAR-3 ovarian) was over 100 µM and the TGI (SW-620 colon) was over 100 µM. For the same compound, the TGI (IGROV1 ovarian) was over 100 µM, the TGI (SN12C renal) was over 100 µM and the TGI (UACC-257 melanoma) was over 100 µM. It also gave a TGI (CAKI-1 renal) of over 100 µM, a TGI (M14 melanoma) of over 100 µM and a TGI (NCI-H460 lung) of over 100 µM. The TGI (HCC-2998 colon) was over 100 µM, the TGI (RXF 393 renal) was 52.6 µM and the TGI (SNB-75 CNS) was over 100 µM. The TGI (SK-MEL-28 melanoma) was over 100 µM, the TGI (MCF7 breast) was over 100 µM and the TGI (DU-145 prostate) was over 100 µM. The TGI (COLO 205 colon) was over 100 µM, the TGI (RPMI-8226 leukemia) was over 100 µM and the TGI (SK-MEL-5 melanoma) was over 100 µM. For the same compound, the TGI (EKVX NSCLC) was over 100 µM, the TGI (KM12 colon) was over 100 µM and the TGI (OVCAR-8 ovarian) was over 100 µM.
